Target: T1, full-length ATR (Homo sapiens, UniProt Q13535)
T1 construct: in the presence of 5 nM full-length ATR
Test: ATR Inhibition Assay (radioactive-phosphate incorporation)
Type: biochemical
Conditions: Ki(app); 5 nM full-length ATR, 10 μM ATP, 800 μM target peptide, 25° C.
Outline: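 After a 10-min pre-incubation of compound with 5 nM enzyme at 25 °C, ATP was added to start the reaction (final 10 μM [γ-33P]ATP, 800 μM peptide; Tris/HCl pH 7.5, MgCl2, DTT), which ran 24 h. Incorporated 33P was captured on phosphocellulose filters, and Ki(app) was fitted by non-linear regression.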

T1 sequence (Q13535 whole entry): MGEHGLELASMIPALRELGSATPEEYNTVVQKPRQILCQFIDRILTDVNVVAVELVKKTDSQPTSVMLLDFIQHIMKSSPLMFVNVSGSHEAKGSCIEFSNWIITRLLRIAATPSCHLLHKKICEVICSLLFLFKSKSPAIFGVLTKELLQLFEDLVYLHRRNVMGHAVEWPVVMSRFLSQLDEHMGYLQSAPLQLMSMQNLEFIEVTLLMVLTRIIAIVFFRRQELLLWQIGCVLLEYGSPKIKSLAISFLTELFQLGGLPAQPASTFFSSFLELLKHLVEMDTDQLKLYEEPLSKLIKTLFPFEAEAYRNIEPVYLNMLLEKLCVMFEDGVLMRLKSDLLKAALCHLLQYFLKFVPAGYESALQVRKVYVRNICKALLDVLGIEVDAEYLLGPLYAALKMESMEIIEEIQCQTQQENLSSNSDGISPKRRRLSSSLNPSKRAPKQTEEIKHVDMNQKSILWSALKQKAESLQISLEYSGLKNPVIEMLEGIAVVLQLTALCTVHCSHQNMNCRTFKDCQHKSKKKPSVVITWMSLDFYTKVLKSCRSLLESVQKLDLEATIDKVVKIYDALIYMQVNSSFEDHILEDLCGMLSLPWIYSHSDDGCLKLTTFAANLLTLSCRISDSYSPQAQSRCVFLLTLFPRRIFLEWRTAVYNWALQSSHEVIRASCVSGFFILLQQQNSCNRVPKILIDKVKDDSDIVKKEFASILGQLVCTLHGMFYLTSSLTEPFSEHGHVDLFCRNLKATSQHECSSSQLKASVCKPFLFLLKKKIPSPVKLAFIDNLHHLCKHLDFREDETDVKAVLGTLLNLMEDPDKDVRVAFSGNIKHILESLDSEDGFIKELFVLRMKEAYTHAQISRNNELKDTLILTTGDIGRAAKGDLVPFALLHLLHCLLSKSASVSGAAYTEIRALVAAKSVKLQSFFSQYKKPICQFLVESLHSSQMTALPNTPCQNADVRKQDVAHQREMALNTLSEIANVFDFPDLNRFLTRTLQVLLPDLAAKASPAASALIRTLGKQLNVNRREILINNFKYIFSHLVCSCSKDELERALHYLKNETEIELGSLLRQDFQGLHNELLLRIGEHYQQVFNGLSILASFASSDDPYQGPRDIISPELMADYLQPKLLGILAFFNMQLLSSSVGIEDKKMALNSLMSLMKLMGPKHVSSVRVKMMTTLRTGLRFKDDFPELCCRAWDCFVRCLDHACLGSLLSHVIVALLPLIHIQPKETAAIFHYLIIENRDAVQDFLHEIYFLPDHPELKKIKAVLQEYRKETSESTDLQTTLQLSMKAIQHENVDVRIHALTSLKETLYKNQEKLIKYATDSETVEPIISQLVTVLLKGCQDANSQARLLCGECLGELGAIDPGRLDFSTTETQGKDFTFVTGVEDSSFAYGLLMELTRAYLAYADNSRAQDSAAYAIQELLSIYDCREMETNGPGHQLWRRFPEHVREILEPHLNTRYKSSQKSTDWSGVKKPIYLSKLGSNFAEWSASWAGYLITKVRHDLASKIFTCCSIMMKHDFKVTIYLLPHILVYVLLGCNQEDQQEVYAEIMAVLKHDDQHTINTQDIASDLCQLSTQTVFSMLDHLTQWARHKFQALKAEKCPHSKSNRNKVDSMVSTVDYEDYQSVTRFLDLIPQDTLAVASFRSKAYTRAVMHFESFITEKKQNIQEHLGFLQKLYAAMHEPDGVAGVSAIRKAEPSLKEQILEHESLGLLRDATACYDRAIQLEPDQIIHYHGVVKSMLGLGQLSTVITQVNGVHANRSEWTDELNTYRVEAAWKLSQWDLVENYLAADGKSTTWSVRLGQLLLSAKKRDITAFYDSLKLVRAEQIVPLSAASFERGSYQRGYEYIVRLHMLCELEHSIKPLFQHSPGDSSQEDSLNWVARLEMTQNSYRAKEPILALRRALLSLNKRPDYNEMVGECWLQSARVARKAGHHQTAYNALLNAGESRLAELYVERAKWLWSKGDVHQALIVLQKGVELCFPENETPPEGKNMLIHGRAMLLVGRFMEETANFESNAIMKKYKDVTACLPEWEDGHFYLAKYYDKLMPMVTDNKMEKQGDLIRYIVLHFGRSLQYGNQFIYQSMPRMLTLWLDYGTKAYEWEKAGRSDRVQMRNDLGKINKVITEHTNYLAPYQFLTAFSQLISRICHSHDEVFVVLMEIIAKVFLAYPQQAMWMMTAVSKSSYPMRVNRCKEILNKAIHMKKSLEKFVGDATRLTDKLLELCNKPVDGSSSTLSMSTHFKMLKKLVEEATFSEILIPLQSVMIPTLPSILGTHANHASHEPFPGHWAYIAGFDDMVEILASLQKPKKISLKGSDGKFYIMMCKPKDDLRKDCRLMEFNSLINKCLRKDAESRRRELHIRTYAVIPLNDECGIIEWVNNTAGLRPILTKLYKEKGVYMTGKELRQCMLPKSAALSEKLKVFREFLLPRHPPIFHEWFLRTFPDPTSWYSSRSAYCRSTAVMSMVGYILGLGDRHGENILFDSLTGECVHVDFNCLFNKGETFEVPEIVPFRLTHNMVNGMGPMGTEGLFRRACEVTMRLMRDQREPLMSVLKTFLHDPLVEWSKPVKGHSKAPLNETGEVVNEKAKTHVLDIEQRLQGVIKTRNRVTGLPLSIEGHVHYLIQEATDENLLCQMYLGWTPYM

| Structure (SMILES) | Ki [µM] |
| --- | --- |
| Nc1ncc(C2=CCN(C(=O)C3CCCC3)CC2)nc1-c1nc2ccccc2[nH]1 [Compound I-206, (4-(5-amino-6-(1H-benzo[d]imidazol-2-yl)pyrazin-2-yl)-5,6-dihydropyridin-1(2H)-yl)(cyclopentyl)methanone] | 0.1 to 1 |
| Cc1ccc2nc(-c3nc(N4CCNC(=O)C4)cnc3N)[nH]c2c1 [Compound I-7, 4-(5-amino-6-(6-methyl-1H-benzo[d]imidazol-2-yl)pyrazin-2-yl)piperazin-2-one] | 0.1 to 1 |
| Nc1ncc(N2CCCC2=O)nc1-c1nc2ccccc2[nH]1 [Compound I-75, 1-(5-amino-6-(1H-benzo[d]imidazol-2-yl)pyrazin-2-yl)pyrrolidin-2-one] | 1 to 10 |
| CCNC(=O)O[C@H]1CCN(c2cnc(N)c(-c3nnc(-c4ccc(CNC)cc4)o3)n2)C1 [Compound I-372, [(3S)-1-[5-Amino-6-[5-[4-(methylaminomethyl)phenyl]-1,3,4-oxadiazol-2-yl]pyrazin-2-yl]pyrrolidin-3-yl]N-ethylcarbamate] | 0.1 to 1 |
| COCC(=O)N1CCN(c2cnc(N)c(-c3nc4ccccc4[nH]3)n2)CC1 [Compound I-265, 1-(4-(5-amino-6-(1H-benzo[d]imidazol-2-yl)pyrazin-2-yl)piperazin-1-yl)-2-methoxyethanone] | 1 to 10 |
| Nc1ncc(C2=CCN(C(=O)COc3ccccc3)CC2)nc1-c1nc2ccccc2[nH]1 [Compound I-137, 1-(4-(5-amino-6-(1H-benzo[d]imidazol-2-yl)pyrazin-2-yl)-5,6-dihydropyridin-1(2H)-yl)-2-phenoxyethanone] | 0.1 to 1 |
| CN(C)CC(=O)N1CCN(c2cnc(N)c(C(=O)Nc3ccccn3)n2)CC1 [Compound I-150, 3-amino-6-(4-(2-(dimethylamino)ethanoyl)piperazin-1-yl)-N-(pyridin-2-yl)pyrazine-2-carboxamide] | 1 to 10 |
| Cc1ccc2nc(-c3nc(N4CCN(C(=O)c5ccco5)CC4)cnc3N)[nH]c2c1 [Compound I-53, (4-(5-amino-6-(6-methyl-1H-benzo[d]imidazol-2-yl)pyrazin-2-yl)piperazin-1-yl)(furan-2-yl)methanone] | 0.1 to 1 |
| CNCc1ccc(-c2nnc(-c3nc(N4C[C@@H]5C(C(=O)O)[C@@H]5C4)cnc3N)o2)cc1 (stereo partly drawn) [Compound I-349, (1R,5S)-3-[5-Amino-6-[5-[4-(methylaminomethyl)phenyl]-1,3,4-oxadiazol-2-yl]pyrazin-2-yl]-3-azabicyclo[3.1.0]hexane-6-carboxylic acid] | 0.1 to 1 |
| Nc1ncc(N2CCN(C(=O)C3CCOCC3)CC2)nc1C(=O)Nc1ccccn1 [Compound I-230, 3-amino-N-(pyridin-2-yl)-6-(4-(tetrahydro-2H-pyran-4-carbonyl)piperazin-1-yl)pyrazine-2-carboxamide] | 1 to 10 |
| CCS(=O)(=O)N1CCC2(CCN(c3cnc(N)c(-c4nnc(-c5ccc(CNC)cc5)o4)n3)C2)C1 (stereo not shown) [Compound I-330, 5-(3-Ethylsulfonyl-3,7-diazaspiro[4.4]nonan-7-yl)-3-[5-[4-(methylaminomethyl)phenyl]-1,3,4-oxadiazol-2-yl]pyrazin-2-amine] | 1 to 10 |
| Nc1ncc(N2CCN(C(=O)c3c(F)cccc3F)CC2)nc1-c1nnc(-c2ccccc2)o1 [Compound I-203, (4-(5-amino-6-(5-phenyl-1,3,4-oxadiazol-2-yl)pyrazin-2-yl)piperazin-1-yl)(2,6-difluorophenyl)methanone] | 0.1 to 1 |
| Nc1ncc(N2CCN(C(=O)c3ccccn3)CC2)nc1C(=O)Nc1ccccn1 [Compound I-148, 3-amino-N-(pyridin-2-yl)-6-(4-(pyridine-2-carbonyl)piperazin-1-yl)pyrazine-2-carboxamide] | 1 to 10 |
| Nc1ncc(N2CCN(S(=O)(=O)C3CCCC3)CC2)nc1-c1nnc(-c2ccccc2)o1 [Compound I-92, 5-(4-(cyclopentylsulfonyl)piperazin-1-yl)-3-(5-phenyl-1,3,4-oxadiazol-2-yl)pyrazin-2-amine] | 0.1 to 1 |
| Nc1ncc(N2CCN(S(=O)(=O)c3cccs3)CC2)nc1-c1nc2ccccc2[nH]1 [Compound I-104, 3-(1H-benzo[d]imidazol-2-yl)-5-(4-(thiophen-2-ylsulfonyl)piperazin-1-yl)pyrazin-2-amine] | 0.1 to 1 |
| CCS(=O)(=O)N1CCN(c2cnc(N)c(-c3cc4ccccc4s3)n2)CC1 [Compound I-59, 3-(benzo[b]thiophen-2-yl)-5-(4-(ethylsulfonyl)piperazin-1-yl)pyrazin-2-amine] | 0.1 to 1 |
| Nc1ncc(N2CC=C(C(=O)O)CC2)nc1-c1nnc(-c2ccccc2)o1 [Compound I-288, 1-[5-amino-6-(5-phenyl-1,3,4-oxadiazol-2-yl)pyrazin-2-yl]-3,6-dihydro-2H-pyridine-4-carboxylic acid] | 0.1 to 1 |
| Nc1ncc(N2CCN(C(=O)COc3ccccc3)CC2)nc1-c1nnc(-c2ccccc2)o1 [Compound I-195, 1-(4-(5-amino-6-(5-phenyl-1,3,4-oxadiazol-2-yl)pyrazin-2-yl)piperazin-1-yl)-2-phenoxyethanone] | 1 to 10 |
| Cn1cnc(S(=O)(=O)N2CC=C(c3cnc(N)c(-c4nnc(-c5ccccc5)o4)n3)CC2)c1 [Compound I-120, 5-(1-(1-methyl-1H-imidazol-4-ylsulfonyl)-1,2,3,6-tetrahydropyridin-4-yl)-3-(5-phenyl-1,3,4-oxadiazol-2-yl)pyrazin-2-amine] | < 0.1 |
| CCC(CC)C(=O)N[C@H]1CCN(c2cnc(N)c(-c3nc4ccccc4[nH]3)n2)C1 [Compound I-211, (S)-N-(1-(5-amino-6-(1H-benzo[d]imidazol-2-yl)pyrazin-2-yl)pyrrolidin-3-yl)-2-ethylbutanamide] | 1 to 10 |
| CCS(=O)(=O)N1CC=C(c2cnc(N)c(-c3nc4ccccc4[nH]3)n2)CC1 [Compound I-71, 3-(1H-benzo[d]imidazol-2-yl)-5-(1-(ethylsulfonyl)-1,2,3,6-tetrahydropyridin-4-yl)pyrazin-2-amine] | < 0.1 |
| COCC(=O)N1CC=C(c2cnc(N)c(-c3nnc(-c4ccccc4)o3)n2)CC1 [Compound I-130, 1-(4-(5-amino-6-(5-phenyl-1,3,4-oxadiazol-2-yl)pyrazin-2-yl)-5,6-dihydropyridin-1(2H)-yl)-2-methoxyethanone] | < 0.1 |

More lines, now with the values ahead:

| Ki [µM] | Structure (SMILES) |
| --- | --- |
| < 0.1 | Nc1ncc(C2=CCN(C(=O)c3ccccn3)CC2)nc1-c1nc2ccccc2[nH]1 [Compound I-139, (4-(5-amino-6-(1H-benzo[d]imidazol-2-yl)pyrazin-2-yl)-5,6-dihydropyridin-1(2H)-yl)(pyridin-2-yl)methanone] |
| < 0.1 | CCS(=O)(=O)N1CCN(c2cnc(N)c(-c3nnc(-c4ccc(CNC)cc4)o3)n2)C[C@@H]1C [Compound I-345, 5-[(35)-4-Ethylsulfonyl-3-methyl-piperazin-1-yl]-3-[5-[4-(methylaminomethyl)phenyl]-1,3,4-oxadiazol-2-yl]pyrazin-2-amine] |
| < 0.1 | CC(=O)N1CC=C(c2cnc(N)c(-c3nc4ccccc4[nH]3)n2)CC1 [Compound I-136, 1-(4-(5-amino-6-(1H-benzo[d]imidazol-2-yl)pyrazin-2-yl)-5,6-dihydropyridin-1(2H)-yl)ethanone] |
| < 0.1 | COC(=O)N1CC=C(c2cnc(N)c(-c3nnc(-c4ccccc4)o3)n2)CC1 [Compound I-228, methyl 4-(5-amino-6-(5-phenyl-1,3,4-oxadiazol-2-yl)pyrazin-2-yl)-5,6-dihydropyridine-1(2H)-carboxylate] |
| < 0.1 | Nc1ncc(C2=CCN(S(=O)(=O)C3CC3)CC2)nc1-c1nnc(-c2ccccc2)o1 [Compound I-122, 5-(1-(cyclopropylsulfonyl)-1,2,3,6-tetrahydropyridin-4-yl)-3-(5-phenyl-1,3,4-oxadiazol-2-yl)pyrazin-2-amine] |
| < 0.1 | Cn1cnc(S(=O)(=O)N2CC=C(c3cnc(N)c(-c4nc5ccccc5[nH]4)n3)CC2)c1 [Compound I-94, 3-(1H-benzo[d]imidazol-2-yl)-5-(1-(1-methyl-1H-imidazol-4-ylsulfonyl)-1,2,3,6-tetrahydropyridin-4-yl)pyrazin-2-amine] |
| < 0.1 | CCS(=O)(=O)N1CCN(c2cnc(N)c(-c3nnc(-c4ccc(CNC)cc4)o3)n2)CC1 [Compound I-325, 5-(4-Ethylsulfonylpiperazin-1-yl)-3-[5-[4-(methylaminomethyl)phenyl]-1,3,4-oxadiazol-2-yl]pyrazin-2-amine] |
| < 0.1 | CNCc1ccc(-c2nnc(-c3nc(N4CC[C@H](CNC(C)=O)C4)cnc3N)o2)cc1 [Compound I-317, N-[[(3R)-1-[5-Amino-6-[5-[4-(methylaminomethyl)phenyl]-1,3,4-oxadiazol-2-yl]pyrazin-2-yl]pyrrolidin-3-yl]methyl]acetamide] |
| < 0.1 | COCC(=O)N1CC=C(c2cnc(N)c(-c3nc4ccccc4[nH]3)n2)CC1 [Compound I-138, 1-(4-(5-amino-6-(1H-benzo[d]imidazol-2-yl)pyrazin-2-yl)-5,6-dihydropyridin-1(2H)-yl)-2-methoxyethanone] |
| < 0.1 | Nc1ncc(C2=CCN(S(=O)(=O)c3ccsc3)CC2)nc1-c1nnc(-c2ccccc2)o1 [Compound I-121, 3-(5-phenyl-1,3,4-oxadiazol-2-yl)-5-(1-(thiophen-3-ylsulfonyl)-1,2,3,6-tetrahydropyridin-4-yl)pyrazin-2-amine] |
| < 0.1 | Nc1ncc(C2=CCN(C(=O)N3CCCCC3)CC2)nc1-c1nnc(-c2ccccc2)o1 [Compound I-236, (4-(5-amino-6-(5-phenyl-1,3,4-oxadiazol-2-yl)pyrazin-2-yl)-5,6-dihydropyridin-1(2H)-yl)(piperidin-1-yl)methanone] |
| < 0.1 | CCS(=O)(=O)N1CC=C(c2cnc(N)c(-c3nc4c(F)cccc4[nH]3)n2)CC1 [Compound I-155, 5-(1-(ethylsulfonyl)-1,2,3,6-tetrahydropyridin-4-yl)-3-(4-fluoro-1H-benzo[d]imidazol-2-yl)pyrazin-2-amine] |
